Experimental data from the supplement of paper PMC9013687.

Columns and labels:
[1] = test system: Danio rerio embryo; conditions: exposure time: 2 dpf
Description: (§1)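 Zebrafish embryos (UFZ-OBI strain) were exposed from 2 hpf for 48 h (2 dpf) or 96 h (4 dpf) at 28 °C; spontaneous tail coiling was scored at 25 hpf. Morphological features from automated image analysis (FishInspector), heart rate and locomotor response were fitted with drc models. Quantal endpoints were dichotomised at 2.5 SD from controls and fitted with a log-logistic model; heart rate, pigmentation and STC were normalised to the replicate control mean. Betamethasone was tested as betamethasone dipropionate, diflorasone as diflorasone diacetate.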

[2] = test system: Danio rerio embryo
Description: as §1

[3] = test system: Danio rerio embryo; conditions: exposure time: 4 dpf
Description: as §1

[4] = test system: Danio rerio embryo; test: EC50 Curvature_Increase; conditions: exposure time: 2 dpf
Description: as §1

[5] = test system: Danio rerio embryo; test: EC50 Body length_Decrease
Description: as §1

[6] = test system: Danio rerio embryo; test: EC50 Pericard size_Increase
Description: as §1

[7] = test system: Danio rerio embryo; test: EC50 Eye-jaw distance_Decrease; conditions: exposure time: 4 dpf
Description: as §1

[8] = test system: Danio rerio embryo; test: EC50 Otolith-eye distance_Decrease; conditions: exposure time: 4 dpf
Description: as §1

[9] = test system: Danio rerio embryo; test: EC10 LMR dark; higher = less potent; conditions: exposure time: 4 dpf
Description: as §1

[10] = test system: Danio rerio embryo; test: EC20 LMR dark; higher = less potent; conditions: exposure time: 4 dpf
Description: as §1

[11] = test system: Danio rerio embryo; test: EC20 Any effect; higher = less potent
Description: as §1

[12] = test system: Danio rerio embryo; test: EC10 Any effect; higher = less potent
Description: as §1

[13] = test system: Danio rerio embryo; test: EC20 STC bell shape; higher = less potent; conditions: exposure time: 25 h
Description: as §1

[14] = test system: Danio rerio embryo; test: EC10 STC bell shape; higher = less potent; conditions: exposure time: 25 h
Description: as §1

[15] = test system: Danio rerio embryo; test: EC10 Curvature_Increase; higher = less potent; conditions: exposure time: 2 dpf
Description: as §1

[16] = test system: Danio rerio embryo; test: EC10 LMR ligth decrease; higher = less potent; conditions: exposure time: 4 dpf
Description: as §1

[17] = test system: Danio rerio embryo; test: EC20 LMR ligth decrease; higher = less potent; conditions: exposure time: 4 dpf
Description: as §1

[18] = test system: Danio rerio embryo; test: EC20 Curvature_Increase; higher = less potent; conditions: exposure time: 2 dpf
Description: as §1

[19] = test system: Danio rerio embryo; test: EC20 Body length_Decrease; higher = less potent
Description: as §1

[20] = test system: Danio rerio embryo; test: EC10 Body length_Decrease; higher = less potent
Description: as §1

[21] = test system: Danio rerio embryo; test: EC10 Pigmentation decrease; higher = less potent; conditions: exposure time: 2 dpf
Description: as §1

[22] = test system: Danio rerio embryo; test: EC20 Pigmentation decrease; higher = less potent; conditions: exposure time: 2 dpf
Description: as §1

[23] = test system: Danio rerio embryo; test: EC20 Pericard size_Increase; higher = less potent
Description: as §1

[24] = test system: Danio rerio embryo; test: EC10 Pericard size_Increase; higher = less potent
Description: as §1

[25] = test system: Danio rerio embryo; test: EC20 Eye-jaw distance_Decrease; higher = less potent; conditions: exposure time: 4 dpf
Description: as §1

[26] = test system: Danio rerio embryo; test: EC10 Eye-jaw distance_Decrease; higher = less potent; conditions: exposure time: 4 dpf
Description: as §1

[27] = test system: Danio rerio embryo; test: EC20 Otolith-eye distance_Decrease; higher = less potent; conditions: exposure time: 4 dpf
Description: as §1

[28] = test system: Danio rerio embryo; test: EC10 Otolith-eye distance_Decrease; higher = less potent; conditions: exposure time: 4 dpf
Description: as §1

[29] = test system: Danio rerio embryo; test: spontaneous tail coiling frequency (coils/min/embryo); higher = more spontaneous movement; conditions: 25 hpf
Description: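 Spontaneous tail coilings of zebrafish embryos exposed from 2 hpf were recorded at 24-25 hpf in 1-min videos and detected by a KNIME workflow from grey-value variance. Betamethasone was tested as the dipropionate, diflorasone as the diacetate.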

O=C(O)Cc1ccccc1Nc1c(Cl)cccc1Cl [Diclofenac]
Conditions	EC10 Curvature Increase [µM]	EC10 Eye-jaw distance Decrease [µM]	EC10 LMR dark [µM]	EC10 LMR ligth decrease [µM]	EC10 Otolith-eye distance Decrease [µM]	EC10 Pigmentation decrease [µM]	EC10 STC bell shape [µM]	EC20 Curvature Increase [µM]	EC20 Eye-jaw distance Decrease [µM]	EC20 LMR dark [µM]	EC20 LMR ligth decrease [µM]	EC20 Otolith-eye distance Decrease [µM]	EC20 Pigmentation decrease [µM]	EC20 STC bell shape [µM]	EC50 Curvature Increase [µM]	EC50 Eye-jaw distance Decrease [µM]	EC50 LMR dark [µM]	EC50 Otolith-eye distance Decrease [µM]	EC50 Pigmentation decrease [µM]
[1]	–	–	–	–	–	–	–	–	–	–	–	–	–	–	–	–	–	–	18.8
[3]	–	–	–	–	–	–	–	–	–	–	–	–	–	–	–	–	8.07	–	–
[4]	–	–	–	–	–	–	–	–	–	–	–	–	–	–	13.2	–	–	–	–
[7]	–	–	–	–	–	–	–	–	–	–	–	–	–	–	–	10.1	–	–	–
[8]	–	–	–	–	–	–	–	–	–	–	–	–	–	–	–	–	–	9.6	–
[9]	–	–	6.21	–	–	–	–	–	–	–	–	–	–	–	–	–	–	–	–
[10]	–	–	–	–	–	–	–	–	–	6.84	–	–	–	–	–	–	–	–	–
[13]	–	–	–	–	–	–	–	–	–	–	–	–	–	37.8	–	–	–	–	–
[14]	–	–	–	–	–	–	32.4	–	–	–	–	–	–	–	–	–	–	–	–
[15]	11.5	–	–	–	–	–	–	–	–	–	–	–	–	–	–	–	–	–	–
[16]	–	–	–	5.85	–	–	–	–	–	–	–	–	–	–	–	–	–	–	–
[17]	–	–	–	–	–	–	–	–	–	–	6.64	–	–	–	–	–	–	–	–
[18]	–	–	–	–	–	–	–	12.1	–	–	–	–	–	–	–	–	–	–	–
[21]	–	–	–	–	–	10.9	–	–	–	–	–	–	–	–	–	–	–	–	–
[22]	–	–	–	–	–	–	–	–	–	–	–	–	13.2	–	–	–	–	–	–
[25]	–	–	–	–	–	–	–	–	6.88	–	–	–	–	–	–	–	–	–	–
[26]	–	5.49	–	–	–	–	–	–	–	–	–	–	–	–	–	–	–	–	–
[27]	–	–	–	–	–	–	–	–	–	–	–	6.89	–	–	–	–	–	–	–
[28]	–	–	–	–	5.67	–	–	–	–	–	–	–	–	–	–	–	–	–	–

Conditions	EC10 Any effect [µM]	EC10 Body length Decrease [µM]	EC10 Pericard size Increase [µM]	EC20 Any effect [µM]	EC20 Body length Decrease [µM]	EC20 Pericard size Increase [µM]	EC50 Any effect [µM]	EC50 Body length Decrease [µM]	EC50 LMR ligth decrease [µM]	EC50 Pericard size Increase [µM]	EC50 STC bell shape [µM]	spontaneous tail coiling frequency
[2], exposure time: 2 dpf	–	–	–	–	–	–	12.4	–	–	–	–	–
[2], exposure time: 4 dpf	–	–	–	–	–	–	8.22	–	8.24	–	–	–
[2], exposure time: 25 h	–	–	–	–	–	–	–	–	–	–	50.9	–
[5], exposure time: 2 dpf	–	–	–	–	–	–	–	14.2	–	–	–	–
[5], exposure time: 4 dpf	–	–	–	–	–	–	–	8.33	–	–	–	–
[6], exposure time: 2 dpf	–	–	–	–	–	–	–	–	–	12.2	–	–
[6], exposure time: 4 dpf	–	–	–	–	–	–	–	–	–	8.32	–	–
[11], exposure time: 2 dpf	–	–	–	11.3	–	–	–	–	–	–	–	–
[11], exposure time: 4 dpf	–	–	–	5.45	–	–	–	–	–	–	–	–
[12], exposure time: 2 dpf	10.7	–	–	–	–	–	–	–	–	–	–	–
[12], exposure time: 4 dpf	4.28	–	–	–	–	–	–	–	–	–	–	–
[19], exposure time: 2 dpf	–	–	–	–	12.1	–	–	–	–	–	–	–
[19], exposure time: 4 dpf	–	–	–	–	7.11	–	–	–	–	–	–	–
[20], exposure time: 2 dpf	–	11.1	–	–	–	–	–	–	–	–	–	–
[20], exposure time: 4 dpf	–	6.47	–	–	–	–	–	–	–	–	–	–
[23], exposure time: 2 dpf	–	–	–	–	–	11.1	–	–	–	–	–	–
[23], exposure time: 4 dpf	–	–	–	–	–	6.72	–	–	–	–	–	–
[24], exposure time: 2 dpf	–	–	10.5	–	–	–	–	–	–	–	–	–
[24], exposure time: 4 dpf	–	–	5.93	–	–	–	–	–	–	–	–	–
[29], 1 µM	–	–	–	–	–	–	–	–	–	–	–	2.73
[29], 2 µM	–	–	–	–	–	–	–	–	–	–	–	2.93
[29], 3.123 µM	–	–	–	–	–	–	–	–	–	–	–	2.81
[29], 4 µM	–	–	–	–	–	–	–	–	–	–	–	2.63
[29], 5.12 µM	–	–	–	–	–	–	–	–	–	–	–	2.43
[29], 6.25 µM	–	–	–	–	–	–	–	–	–	–	–	2.41
[29], 6.4 µM	–	–	–	–	–	–	–	–	–	–	–	2.64
[29], 8 µM	–	–	–	–	–	–	–	–	–	–	–	3.93
[29], 10 µM	–	–	–	–	–	–	–	–	–	–	–	3.72
[29], 12.5 µM	–	–	–	–	–	–	–	–	–	–	–	3.42
[29], 15.6 µM	–	–	–	–	–	–	–	–	–	–	–	4.34
[29], 25 µM	–	–	–	–	–	–	–	–	–	–	–	4.62
[29], 31.25 µM	–	–	–	–	–	–	–	–	–	–	–	3.8
[29], 50 µM	–	–	–	–	–	–	–	–	–	–	–	2.15
[29], 62.5 µM	–	–	–	–	–	–	–	–	–	–	–	1.4
[29], 100 µM	–	–	–	–	–	–	–	–	–	–	–	0
[29], 150 µM	–	–	–	–	–	–	–	–	–	–	–	0
